According to patent US4719302A (priority 1987, dated 1988):
Values after ≈ are worked out from the molar mass of the structure shown. Like-named read-outs stand apart in the source and are kept apart here.

Key:
Format in all cases: cell-based
[1] = system: Candida albicans ATCC 10231; assay: antifungal activity, disc agar assay (Minimum Inhibitory Concentration), Candida albicans
Procedure: (§1) The compounds of the invention are tested to determine their antifungal activity. The assay procedure is as follows:
(§2) The compounds to be tested are solubilized or suspended in appropriate reagent and further diluted in sterile distilled water to provide a range of concentrations from 200 to 10 μg/ml. 20 Lambda portions are placed on sterile dried 1/4 inch paper discs and allowed to dry for 20-30 minutes. Agar plates with a 10 ml base layer are seeded with the fungi in a 4 ml seed layer and allowed to solidify. The impregnated discs are then placed on the seeded agar surface and incubated for the time required for the particular culture.
(§3) The representative fungi are:
Candida albicans ATCC 10231
(§4) All are human pathogens; the first four cause serious systemic mycotic infections as well as local. The trychophyton culture is mainly a dermatophyte.

[2] = system: Cryptococcus neoformans ATCC 14115; assay: antifungal activity, disc agar assay (Minimum Inhibitory Concentration), Cryptococcus neoformans
Procedure: as §1, §2, §3, §4

[3] = system: Trichophyton mentagrophytes ATCC 9533; assay: antifungal activity, disc agar assay (Minimum Inhibitory Concentration), Trichophyton mentagrophytes
Procedure: as §1, §2, §3
Trichophyton mentagrophytes
as §4

[4] = system: Histoplasma capsulatum Yeast Phase ATCC 11407; assay: microbe, parasite or virus in culture; details: read-out: Minimum Inhibitory Concentration
[5] = system: Blastomyces dermatitidis Yeast Phase ATCC 28839; assay: antifungal activity, disc agar assay (Minimum Inhibitory Concentration), Blastomyces dermatitidis yeast phase; details: read-out: Minimum Inhibitory Concentration
Procedure: as §1, §2, §3
Blastomyces dermatitidis
as §4

[6] = ATCC10231, Candida Albicans ATCC 10231, read-out: Minimum Inhibitory Concentration
[7] = ATCC14115, Cryptococcus Neoformans ATCC 14115, read-out: Minimum Inhibitory Concentration
[8] = ATCC9533, Trichophyton Mentagrophytes ATCC 9533, read-out: Minimum Inhibitory Concentration
[9] = Blastomyces Dermatitidis Yeast Phase ATCC 28839

Structure (SMILES) | MIC [1, 6] [µg/mL] | MIC [2, 7] [µg/mL] | MIC [3, 8] [µg/mL] | MIC [4] [µg/mL] | MIC [5, 9] [µg/mL] | MIC ([1]; Candida albicans, ATCC10231, read-out: Minimum Inhibitory Concentration) [µg/mL] | MIC ([2]; Cryptococcus neoformans, ATCC14115, read-out: Minimum Inhibitory Concentration) [µg/mL] | MIC ([3]; Trichophyton mentagrophytes, ATCC9533, read-out: Minimum Inhibitory Concentration) [µg/mL] | MIC [5] [µg/mL]
CCOC(=O)c1c[nH]c2c(F)cc3c(=O)c(C(=O)O)cn(CC)c3c2c1=O [Example 1, 1-Ethyl-6-fluoro-1,4,7,10-tetrahydro-4,10-dioxo-1,7-phenanthroline-3,9-dicarboxylic acid 9-ethyl ester] | 32 (≈ 85.5 µM) | 64 (≈ 171 µM) | 64 (≈ 171 µM) | 32 (≈ 85.5 µM) | 32 (≈ 85.5 µM) | – | – | – | –
CCOC(=O)c1cn(CC)c2c(cc(F)c3c2c(=O)c(C(=O)OCC)cn3CC)c1=O [Example 2, 1,7-Diethyl-6-fluoro-1,4,7,10-tetrahydro-4,10-dioxo-1,7-phenanthroline-3,9-dicarboxylic acid diethyl ester] | > 64 | > 64 | > 64 | 64 (≈ 149 µM) | 64 (≈ 149 µM) | – | – | – | –
CCn1cc(C(=O)O)c(=O)c2c1c(F)cc1c(=O)c(C(=O)O)cn(CC)c12 [Example 3, 1,7-Diethyl-6-fluoro-1,4,7,10-tetrahydro-4,10-dioxo-1,7-phenanthroline-3,9-dicarboxylic acid] | > 64 | > 64 | > 64 | 64 (≈ 171 µM) | 64 (≈ 171 µM) | – | – | – | –
CCOC(=O)c1c[nH]c2c(cc(F)c3c2c(=O)ccn3CC)c1=O [Example 4, 7-Ethyl-6-fluoro-1,4,7,10-tetrahydro-4,10-dioxo-1,7-phenanthroline-3-carboxylic acid ethyl ester] | – | – | – | > 256 | – | > 256 | > 256 | > 256 | > 256
CCOC(=O)c1c[nH]c2c(cc(F)c3c2c(=O)c(C(=O)O)cn3CC)c1=O [Example 5, 7-Ethyl-6-fluoro-1,4,7,10-tetrahydro-4,10-dioxo-1,7-phenanthroline-3,9-dicarboxylic acid 3-ethyl ester] | > 256 | > 256 | > 256 | > 256 | > 256 | – | – | – | –
CCOC(=O)c1c[nH]c2c(cc(F)c3c2c(=O)c(C(=O)OCC)cn3CC)c1=O [Example 6, 7-Ethyl-6-fluoro-1,4,7,10-tetrahydro-4,10-dioxo-1,7-phenanthroline-3,9-dicarboxylic acid diethyl ester] | > 64 | > 64 | > 64 | 64 (≈ 159 µM) | 64 (≈ 159 µM) | – | – | – | –
